Assay results published in patent US3939266A, “Substituted sulfonylacetamido cephalosporins” (SmithKline Corporation, priority 1974, dated 1976).
Values after ≈ are worked out from the molar mass of the structure shown. Where two headings read alike, the source gives them in different places.

Columns and labels:
Format in all cases: cell-based
S. aureus HH 127 = test: MIC against S. aureus HH 127; conditions: Staphylococcus aureus, HH127
S. aureus SK 23390 = test: MIC against S. aureus SK 23390; conditions: Staphylococcus aureus, SK23390
S. villaluz = test: MIC against S. villaluz
Strep. pyog. C 203 = test: MIC against Strep. pyog. C 203
Strep. faecalis HH 34358 = test: MIC against Strep. faecalis HH 34358; conditions: Enterococcus faecalis, HH34358
E. coli SK 12140 = test: MIC against E. coli SK 12140; conditions: Escherichia coli, SK12140; E. coli SK 12140; read-out: MIC
E. coli HH 33779 = test: MIC against E. coli HH 33779; conditions: Escherichia coli, HH33779
Kleb. pneumo. SK 4200 = test: MIC against Kleb. pneumo. SK 4200
Kleb. pneumo. SK 1200 = test: MIC against Kleb. pneumo. SK 1200
Pseudo. sp. HH 63 = test: MIC against Pseudo. sp. HH 63
Salmonella ATCC 12176 = test: MIC against Salmonella ATCC 12176; conditions: ATCC12176
Shigella HH 112 = test: MIC against Shigella HH 112; conditions: HH112
[1] = test system: Entero. aerog. ATCH 13048; test: MIC against Entero. aerog. ATCH 13048
Serra. marc. ATCC 13880 = test: MIC against Serra. marc. ATCC 13880
Entero. cloaca PaSL 969 = test: MIC against Entero. cloaca PaSL 969
[2] = Salmonella ATCC 12176, read-out: MIC

Row | Compound | MIC (S. aureus HH 127) [mg/L] | MIC (S. aureus SK 23390) [mg/L] | MIC (S. villaluz) [mg/L] | MIC (Strep. pyog. C 203) [mg/L] | MIC (Strep. faecalis HH 34358) [mg/L] | MIC (E. coli SK 12140) [mg/L] | MIC (E. coli HH 33779) [mg/L] | MIC (Kleb. pneumo. SK 4200) [mg/L] | MIC (Kleb. pneumo. SK 1200) [mg/L] | MIC (Pseudo. sp. HH 63) [mg/L] | MIC (Salmonella ATCC 12176; [2]) [mg/L] | MIC (Shigella HH 112; Shigella HH 112, read-out: MIC) [mg/L] | MIC [1] [mg/L] | MIC (Serra. marc. ATCC 13880) [mg/L] | MIC (Entero. cloaca PaSL 969) [mg/L] | MIC (Salmonella ATCC 12176; Salmonella) [mg/L] | MIC (Shigella HH 112; Shigella) [mg/L]
1 | CC1=C(C(=O)O)N2C(=O)C(NC(=O)CS(C)(=O)=O)[C@H]2SC1 (stereo partly shown) [Compound 59454, 7-Methylsulfonylacetamido-3-methyl-3-cephem-4-carboxylic acid] | 25 (≈ 74.8 µM) | 25 (≈ 74.8 µM) | > 200 | 0.4 (≈ 1.2 µM) | > 200 | > 200 | > 200 | > 200 | > 200 | > 200 | > 200 | > 200 | > 200 | > 200 | > 200 | – | –
2 | Cn1nnnc1SCC1=C(C(=O)O)N2C(=O)C(NC(=O)CS(C)(=O)=O)[C@H]2SC1 (stereo partly shown) [Compound 57286, 7-Methylsulfonylacetamido-3-(1-methyltetrazol-5-ylthiomethyl)-3-cephem-4-carboxylic acid] | 3.1 (≈ 6.91 µM) | 1.6 (≈ 3.57 µM) | – | 0.2 (≈ 0.446 µM) | 100 (≈ 223 µM) | 3.1 (≈ 6.91 µM) | 12.5 (≈ 27.9 µM) | 1.6 (≈ 3.57 µM) | 3.1 (≈ 6.91 µM) | > 200 | 3.1 (≈ 6.91 µM) | 3.1 (≈ 6.91 µM) | > 200 | > 200 | > 200 | – | –
3 | CC(=O)OCC1=C(C(=O)O)N2C(=O)C(NC(=O)CS(C)(=O)=O)C2SC1 (stereo not shown) [Compound 54293, 7-Methylsulfonylacetamidocephalosporanic acid] | 3.1 (≈ 7.9 µM) | 1.6 (≈ 4.08 µM) | – | 0.4 (≈ 1.02 µM) | 200 (≈ 510 µM) | 12.5 (≈ 31.9 µM) | 25 (≈ 63.7 µM) | 12.5 (≈ 31.9 µM) | 12.5 (≈ 31.9 µM) | > 200 | 12.5 (≈ 31.9 µM) | 25 (≈ 63.7 µM) | > 200 | – | > 200 | – | –
4 | CCS(=O)(=O)CC(=O)NC1C(=O)N2C(C(=O)O)=C(COC(C)=O)CSC12 (stereo not shown) [Compound 59623, 7-Ethylsulfonylacetamidocephalosporanic acid] | 0.8 (≈ 1.97 µM) | 0.8 (≈ 1.97 µM) | 100 (≈ 246 µM) | 0.1 (≈ 0.246 µM) | 100 (≈ 246 µM) | 25 (≈ 61.5 µM) | 50 (≈ 123 µM) | 6.3 (≈ 15.5 µM) | 6.3 (≈ 15.5 µM) | > 200 | 3.1 (≈ 7.63 µM) | 25 (≈ 61.5 µM) | 200 (≈ 492 µM) | > 200 | – | – | –
5 | Cn1cnnc1SCC1=C(C(=O)O)N2C(=O)C(NC(=O)CS(C)(=O)=O)C2SC1 (stereo not shown) [Compound 59758] | 3.1 (≈ 6.93 µM) | 1.6 (≈ 3.58 µM) | 50 (≈ 112 µM) | 0.1 (≈ 0.223 µM) | 200 (≈ 447 µM) | 6.3 (≈ 14.1 µM) | 12.5 (≈ 27.9 µM) | 6.3 (≈ 14.1 µM) | 6.3 (≈ 14.1 µM) | > 200 | – | – | > 200 | > 200 | – | 3.1 (≈ 6.93 µM) | 0.1 (≈ 0.223 µM)
6 | Cc1nc(SCC2=C(C(=O)O)N3C(=O)C(NC(=O)CS(C)(=O)=O)C3SC2)n[nH]1 (stereo not shown) [Compound 59586] | 1.6 (≈ 3.58 µM) | 0.8 (≈ 1.79 µM) | 100 (≈ 223 µM) | 0.2 (≈ 0.447 µM) | 100 (≈ 223 µM) | 6.3 (≈ 14.1 µM) | 25 (≈ 55.9 µM) | 3.1 (≈ 6.93 µM) | 3.1 (≈ 6.93 µM) | > 200 | 1.6 (≈ 3.58 µM) | 12.5 (≈ 27.9 µM) | 200 (≈ 447 µM) | > 200 | > 200 | – | –
